In US12226476B2, “Helper epitope peptide and application thereof” (CHINA PHARMACEUTICAL UNIVERSITY, priority 2018, dated 2025):
Non-standard residues stand in square brackets, D forms with d. No end group written: not given here. Phe(4-NO2) = N[C@@H](Cc1ccc([N+](=O)[O-])cc1)C(=O)O

Assays:
Type in all cases: in vivo
target cells = assay: CTL-mediated cytotoxicity of PBMC from spleen of immunized mice, LDH kit; conditions: one week after last immunization
Description: (§1) The protocol is as follows: • (1) The helper epitope was connected to individual antigens or antigen epitope with the linking peptide to construct multiple fusion antigens. The sequence of the linking peptide is GPSL (i.e. Gly-Pro-Ser-Leu) (SEQ ID NO:51). • (2) The fusion antigens from (1) were emulsified adequately with complete Freund's adjuvant of the same volume. Then to immunize mice via subcutaneous injection with the emulsion at the dose of 50 μg per mouse. The strains of experimental mice including C57, Fvb and Balb/C. After 7 days and 14 days of first immunization, the fusion antigens from (1) were emulsified adequately with incomplete Freund's adjuvant of the same volume and then to immunize mice via subcutaneous injection with the emulsion at the dose of 50 μg per mouse. • (3) There are two detection methods. One is to obtain the orbital blood of immunized mice on 7, 14, 21 and 28 day respectively, centrifuge the whole blood to get the serum. Then the antibody titer is detected by indirect ELISA. The other one is: one week after the last immunization, the mice are killed to get the spleen. PBMC (peripheral blood mononuclear cells) are isolated, and the CTL-mediated cytotoxicity is detected by LDH (lactate dehydrogenase) kit.
The first step was to construct the fusion antigen. […]
Method 2: one week after last immunization, mice were sacrificed, and spleen was taken; then PBMC (peripheral blood mononuclear cells) were isolated, and the CTL-mediated cytotoxicity was detected by LDH (lactate dehydrogenase) kit. • (1) Setting control: The control group was divided into effector cell spontaneous release group, experimental group, target cell spontaneous release group, target cell maximum release group, volume correction control group and background control group; • (2) The cells were centrifuged at 250 g for 4 minutes to make the effector cells fully contact with the target cells; • (3) The detection plate was incubated with 5% CO2 at 37° C. for 4 hours; 10 μL of Lysis buffer was added to every 100 μL medium (10×) in the target cell maximum release group. […]

Aβ protein-42 = assay: Antibody titer in serum of immunized mice, indirect ELISA; conditions: FIG. 24; compared with the Aβ protein-42 group and the Aβ protein-PADRE group; mice immunized subcutaneously, 50 μg, Freund's adjuvant
Description: as §1, with “One is to obtain the orbital blood of immunized mice on 7, 14, 21 and 28 day respectively, centrifuge the whole blood to get the serum.” left out, “The other one is: one week after the last immunization, the mice are killed to get the spleen.” left out, “kit. […]” for “kit.”
(§2) Method 1: The whole blood was collected every week after immunization and centrifugated at 6000 rpm for 20 min to obtain the serum for a total of 4 weeks. Antibody titers were detected by indirect ELISA as follows: • (1) Coating: the existing antigen or antigen epitope was diluted to 5 μg/mL with coating solution. […]

B epitope SEQ ID NO: 43 = assay: as above; conditions: FIG. 23; compared with the B epitope SEQ ID NO: 43 group and the B epitope SEQ ID NO: 43-PADRE group; mice immunized subcutaneously, 50 μg, Freund's adjuvant
Description: as §1, with “One is to obtain the orbital blood of immunized mice on 7, 14, 21 and 28 day respectively, centrifuge the whole blood to get the serum.” left out, “The other one is: one week after the last immunization, the mice are killed to get the spleen.” left out, “kit. […]” for “kit.”
as §2

VLDNGDPLGPSLTGYLYISAGPSLAKXVAAWTLKAAA (VLDNGDPLGPSLTGYLYISAGPSLAK[Phe(4-NO2)]VAAWTLKAAA) [epitope 3+3p-PADRE]
CTL-mediated cytotoxicity (target cells; FIG. 22, compared with the epitope SEQ ID NO:42 group and the epitope SEQ ID NO: 42-PADre group): significantly enhanced

LVFFAEDVGSNKGAIIGLMVGGVVIAGPSLAKFVAXWTLKAAA (LVFFAEDVGSNKGAIIGLMVGGVVIAGPSLAKFVA[Phe(4-NO2)]WTLKAAA) [A-beta protein-6pPhe-PADRE]
antibody titers (Aβ protein-42): significant increase

FLPESFDGDPASNTAPLQPEGPSLAKFXAAWTLKAAA (FLPESFDGDPASNTAPLQPEGPSLAKF[Phe(4-NO2)]AAWTLKAAA) [B epitope+3 pPhe-PADRE]
antibody titers (B epitope SEQ ID NO: 43): significant increase

VLDNGDPLGPSLXKFVAAWTLKAAA (VLDNGDPLGPSL[Phe(4-NO2)]KFVAAWTLKAAA) [epitope 1+1p-PADRE]
CTL-mediated cytotoxicity (target cells; FIG. 20, compared with the epitope SEQ ID NO:40 group and the epitope SEQ ID NO: 40-PADre group): significantly enhanced

TGYLYISAGPSLAXFVAAWTLKAAA (TGYLYISAGPSLA[Phe(4-NO2)]FVAAWTLKAAA) [epitope 2+2p-PADRE]
CTL-mediated cytotoxicity (target cells; FIG. 21, compared with the epitope SEQ ID NO:41 group and the epitope SEQ ID NO: 41-PADre group): significantly enhanced
